Laboratory results published in ChEMBL document CHEMBL1201862, “PubChem BioAssay data set” (2004).
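Compound exposure: 48 hours, 5 concentrations, 96-well plates. GI50 = concentration required for 50% inhibition of growth.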 The source made the active and inactive calls. Cut-off read from the data, not from the text of the source: active = GI50 up to about 1.1 µM and inactive = higher.

Columns and labels:
Assay in all cases: growth of human tumour cells (NCI), 48 h
786-0 = system: 786-0
CAKI-1 = system: CAKI-1
DU-145 = system: DU-145
EKVX = system: EKVX
HL-60 = system: HL-60
HOP-92 = system: HOP-92
KM12 = system: KM12
M14 = system: M14
MCF7 = system: MCF7
MDA-MB-435 = system: MDA-MB-435
NCI-H23 = system: NCI-H23
SF-268 = system: SF-268
SF-295 = system: SF-295
SK-MEL-5 = system: SK-MEL-5
SNB-19 = system: SNB-19
SNB-75 = system: SNB-75
SR = system: SR
TK-10 = system: TK-10
UACC-257 = system: UACC-257
UO-31 = system: UO-31

Row | Compound | GI50 (786-0) | GI50 (CAKI-1) | GI50 (DU-145) | GI50 (EKVX) | GI50 (HL-60) | GI50 (HOP-92) | GI50 (KM12) | GI50 (M14) | GI50 (MCF7) | GI50 (MDA-MB-435) | GI50 (NCI-H23) | GI50 (SF-268) | GI50 (SF-295) | GI50 (SK-MEL-5) | GI50 (SNB-19) | GI50 (SNB-75) | GI50 (SR) | GI50 (TK-10) | GI50 (UACC-257) | GI50 (UO-31)
1 | O[C@@H]1C=C[C@]23CCN(Cc4cc5c(cc42)OCO5)[C@@H]3C1 | 56.8 µM (inactive) | 26.8 µM (inactive) | 24.7 µM (inactive) | 87.1 µM (inactive) | > 100 µM (inactive) | 65.6 µM (inactive) | 52.5 µM (inactive) | > 100 µM (inactive) | 52.1 µM (inactive) | 57 µM (inactive) | > 100 µM (inactive) | > 100 µM (inactive) | 40 µM (inactive) | > 100 µM (inactive) | 43.1 µM (inactive) | 20.5 µM (inactive) | 67.8 µM (inactive) | 49.8 µM (inactive) | 92 µM (inactive) | 48.2 µM (inactive)
2 | S=C1NCN2CCN(CC2)CNC(=S)C(=S)NCN2CCN(CC2)CNC1=S | 45.1 µM (inactive) | 35.2 µM (inactive) | 36.8 µM (inactive) | 40.9 µM (inactive) | 24.2 µM (inactive) | 62.1 µM (inactive) | > 100 µM (inactive) | 30.1 µM (inactive) | 54.5 µM (inactive) | 39.8 µM (inactive) | 43 µM (inactive) | 61.2 µM (inactive) | > 100 µM (inactive) | 39.5 µM (inactive) | 41.1 µM (inactive) | > 100 µM (inactive) | 58.9 µM (inactive) | > 100 µM (inactive) | 42.7 µM (inactive) | 25.6 µM (inactive)
3 | CN(N=O)C(=O)N[C@H]1C(O)O[C@H](CO)[C@@H](O)[C@@H]1O (stereo not given in full) | 309 µM (inactive) | 429 µM (inactive) | > 750 µM (inactive) | 643 µM (inactive) | 499 µM (inactive) | 548 µM (inactive) | 625 µM (inactive) | > 750 µM (inactive) | 518 µM (inactive) | 515 µM (inactive) | 614 µM (inactive) | 608 µM (inactive) | 589 µM (inactive) | 413 µM (inactive) | 565 µM (inactive) | 484 µM (inactive) | 537 µM (inactive) | > 750 µM (inactive) | 600 µM (inactive) | 658 µM (inactive)
4 | Cc1cc(C)c(C2=NOC(c3ccccc3)(c3cc(=O)n(-c4ccccc4)s3)O2)c(C)c1 (stereo not given) | 19 µM (inactive) | 17.2 µM (inactive) | 32.1 µM (inactive) | 21.9 µM (inactive) | 22.1 µM (inactive) | 23.2 µM (inactive) | 37 µM (inactive) | 27 µM (inactive) | 18.6 µM (inactive) | 48.3 µM (inactive) | 20.6 µM (inactive) | 44.2 µM (inactive) | > 100 µM (inactive) | 74 µM (inactive) | 50.6 µM (inactive) | 26.5 µM (inactive) | 89.7 µM (inactive) | 25.1 µM (inactive) | 38.9 µM (inactive) | 20.8 µM (inactive)
5 | CC1OC(c2ccc3c(c2O)C(=O)C2=C(C3=O)C3(O)C(=O)CC(C)(O)CC3(O)C=C2)CC(O)C1O (stereo not given) | 16.8 µM (inactive) | 7.28 µM (inactive) | 15.6 µM (inactive) | 16 µM (inactive) | 1.98 µM (inactive) | 14.7 µM (inactive) | 21.3 µM (inactive) | 16.1 µM (inactive) | 2.79 µM (inactive) | 10.6 µM (inactive) | 20.6 µM (inactive) | 21.2 µM (inactive) | 16.6 µM (inactive) | 11 µM (inactive) | 18.4 µM (inactive) | 18.2 µM (inactive) | 10.2 µM (inactive) | 15.1 µM (inactive) | 15 µM (inactive) | 17.1 µM (inactive)
6 | COc1ccc(-c2nc(N)c(C#N)c3c2CCSc2ccc(C)cc2-3)cc1OC | 15 µM (inactive) | 19.6 µM (inactive) | 14.8 µM (inactive) | 17.9 µM (inactive) | 2.89 µM (inactive) | 10.1 µM (inactive) | 6.84 µM (inactive) | 29.1 µM (inactive) | 12.1 µM (inactive) | 4.61 µM (inactive) | 8.04 µM (inactive) | 17.2 µM (inactive) | 6.67 µM (inactive) | 6.18 µM (inactive) | 31.3 µM (inactive) | 10.7 µM (inactive) | 2.6 µM (inactive) | 26.4 µM (inactive) | 13.8 µM (inactive) | 4.16 µM (inactive)
7 | O=C1/C(=C/c2ccc(O)cc2)CCCC1CN1CCCCC1 (stereo not given) | 1.02 µM (active) | 2.56 µM (inactive) | 7.24 µM (inactive) | 3.25 µM (inactive) | 0.483 µM (active) | 1.78 µM (inactive) | 1.64 µM (inactive) | 2.94 µM (inactive) | 1.69 µM (inactive) | 7.28 µM (inactive) | 5.12 µM (inactive) | 3.44 µM (inactive) | 16.1 µM (inactive) | 6.01 µM (inactive) | 17.6 µM (inactive) | 8.63 µM (inactive) | 1.39 µM (inactive) | 2.55 µM (inactive) | 2.52 µM (inactive) | 2.51 µM (inactive)
